From patent US10953012B2, “Heterocyclic compounds for the inhibition of pask” (BioEnergenix LLC, priority 2011, dated 2021)

The compounds below were run against PASK (Homo sapiens (Human), UniProt Q96RG2) (assay: PAS Kinase FRET Assay). Details: TR-FRET assay; read-out: IC50 Kinase Domain.
Assay type: biochemical
Description: The aim of the FRET assay is to determine the inhibition potential of test compounds on targeted kinase. This assay platform provides a homogenous screening method for measuring kinase activity by quantitating the amount of phospho-substrate in solution following a kinase reaction.
In the presence of kinase and ATP, the Ulight-peptide is phosphorylated and captured by an anti-phospho-substrate antibody, which brings the Eu chelate donor and Ulight acceptor dyes into close proximity. Upon excitation at 340 nm, the Eu chelate transfers its energy to the Ulight dye, resulting in a fluorescent light emission at 665 nm
Titration of kinase at 1 mM ATP was achieved via the following protocol. After making serial three-fold dilutions of PASK (Invitrogen) in reaction buffer across the plate; 5 μl of kinase dilution and 5 μl substrate/ATP mix were added to the wells of the white Optiplate-384 (PerkinElmer). The contents of the plate were and incubated at RT for 1 h. The reaction was stopped by adding 5 μl of stop solution to each test well followed by mixing and incubation at RT for 10 minutes. 5 μl of detection mix (detection antibody diluted in detection buffer) was added; the contents of the plate were mixed and then incubated in the dark for 1 hour at RT. The signal was recorded at TR-FRET mode (665 nm/615 nm). The results were graphed to calculate the EC50.
Titration of ATP at the EC50 concentration of kinase to determine ATP Km, app. was performed using the following method. After making serial dilutions of ATP (Invitrogen), 5 μl of ATP dilution and 5 μl substrate/kinase mix were added to the wells of the white Optiplate-384 (PerkinElmer). The contents of the plate were and incubated at RT for 1 h. The reaction was stopped by adding 5 μl of stop solution to each test well followed by mixing and incubation at RT for 10 minutes. 5 μl of detection mix (detection antibody diluted in detection buffer) was added; the contents of the plate were mixed and then incubated in the dark for 1 hour at RT. The signal was recorded at TR-FRET mode (665 nm/615 nm). The results were graphed to calculate the EC50 as the ATP Km, app.
Compound screening was done via the following method. 10 mM stock solution of test compound in DMSO was prepared by dissolving test compound in DMSO at RT for 1 hour, and then sonicating at 100% output for 8 minutes. If compound is not soluble under this condition, it was diluted to 3 mM. Kinase reaction buffer was prepared containing 10 mM MgCl2, 50 mM HEPES, 1 mM EGTA, 0.01% TWEEN-20, 2 mM DTT. Serial dilutions of the test compounds were prepared at 4×final assay concentrations using Freedom EVO200® dispensing system as follows: 12×10^−5 M, 4×10^−5 M, 1.33×10^−5 M, 4.44×10^−6 M, 1.48×10^−6 M, 4.92×10^−7 M, 1.65×10^−7 M, […], 1.82×10^−8M, 6.09×10^−9, 2.03×10^−9 M. Test compounds (2.5 μl at 4× the final assay concentration) was added to wells using Freedom EVO200® dispensing system. As a positive control, 2.5 μl of positive compound was added to assay wells, and 2.5 μl of DMSO to assay wells as vehicle control. Kinase solution was prepared in reaction buffer at 2×final assay concentration. Kinase solution (5 μl) was added to each well of the assay plate. The substrate and ATP solution was prepared in kinase reaction buffer at 4×final assay concentration. The kinase reaction was started by adding 2.5 μl of substrate+ATP mix solution to each well of the assay plate. The plate is mixed on a plate shaker; then covered and allowed to react for 2 hours in the dark at 25° C. without shaking. The reaction was stopped by adding 5 μl of stop solution to each test well followed by mixing and incubation at RT for 10 minutes in the dark. 5 μl of detection mix (detection antibody diluted in detection buffer) was added; the contents of the plate were mixed and then incubated in the dark for 1 hour at RT. The signal was recorded at TR-FRET mode (665 nm/615 nm).

PASK, sequence (Q96RG2 999-1251): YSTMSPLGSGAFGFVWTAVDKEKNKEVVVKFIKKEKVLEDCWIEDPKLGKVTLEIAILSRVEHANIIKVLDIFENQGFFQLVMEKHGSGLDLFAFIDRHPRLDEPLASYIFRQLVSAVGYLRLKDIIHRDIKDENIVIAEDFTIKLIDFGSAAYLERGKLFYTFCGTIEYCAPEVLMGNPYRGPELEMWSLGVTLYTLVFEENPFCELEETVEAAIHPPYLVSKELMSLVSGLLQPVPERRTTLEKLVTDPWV

IC50, ≤ 10 µM:
CCc1nn2c(=O)cc(-c3ccc4[nH]nnc4c3)[nH]c2c1-c1ccccc1 [Example 206, 5-(1H-Benzo[d][1,2,3]triazol-5-yl)-2-ethyl-3-phenylpyrazolo[1,5-a]pyrimidin-7(4H)-one]
O=c1cc(-c2ccc3[nH]nnc3c2)[nH]c2c(Cc3ccccc3)cnn12 [Example 207, 5-(1H-Benzo[d][1,2,3]triazol-5-yl)-3-benzylpyrazolo[1,5-a]pyrimidin-7(4H)-one]
Nc1nn2c(=O)cc(-c3ccc4[nH]nnc4c3)[nH]c2c1Cc1ccccc1 [Example 208, 2-Amino-5-(1H-benzo[d][1,2,3]triazol-5-yl)-3-benzylpyrazolo[1,5-a]pyrimidin-7(4H)-one]
O=c1cc(-c2ccc3[nH]nnc3c2)[nH]c2c(Cc3ccccc3)c(O)nn12 [Example 209, 5-(1H-Benzo[d][1,2,3]triazol-5-yl)-3-benzyl-2-hydroxypyrazolo[1,5-a]pyrimidin-7(4H)-one]
O=c1cc(-c2ccc3c(c2)OCO3)[nH]c2c(Cc3ccccn3)cnn12 [Example 211, 5-(Benzo[d][1,3]dioxol-5-yl)-3-(pyridin-2-ylmethyl)-pyrazolo[1,5-a]pyrimidin-7(4H)-one]
Cc1nn2c(=O)cc(-c3ccc4[nH]nnc4c3)[nH]c2c1-c1ccccc1 [Example 212, 5-(1H-Benzo[d][1,2,3]triazol-5-yl)-2-methyl-3-phenylpyrazolo[1,5-a]pyrimidin-7(4H)-one]
O=c1cc(-c2ccc3[nH]nnc3c2)[nH]c2c(-c3ccccc3)c(O)nn12 [Example 215, 5-(1H-Benzo[d][1,2,3]triazol-5-yl)-2-hydroxy-3-phenylpyrazolo[1,5-a]pyrimidin-7(4H)-one]
Cc1nn2c(=O)cc(-c3ccc4[nH]nnc4c3)[nH]c2c1-c1ccc(Cl)cc1 [Example 216, 5-(1H-Benzo[d][1,2,3]triazol-5-yl)-3-(4-chlorophenyl)-2-methylpyrazolo[1,5-a]pyrimidin-7(4H)-one]
Cc1nn2c(=O)cc(-c3ccc4[nH]ncc4c3)[nH]c2c1-c1ccccn1 [Example 219, 5-(1H-Indazol-5-yl)-2-methyl-3-(pyridin-2-yl)pyrazolo[1,5-a]pyrimidin-7(4H)-one]
Cc1nn2c(=O)cc(-c3ccc4[nH]ncc4c3)[nH]c2c1-c1ccc(Cl)cc1 [Example 220, 3-(4-Chlorophenyl)-5-(1H-indazol-5-yl)-2-methylpyrazolo[1,5-a]pyrimidin-7(4H)-one]
Nc1nn2c(=O)cc(-c3ccc4[nH]ncc4c3)[nH]c2c1-c1ccc(Cl)cc1 [Example 221, 2-Amino-3-(4-chlorophenyl)-5-(1H-indazol-5-yl)pyrazolo[1,5-a]pyrimidin-7(4H)-one]
O=c1cc(-c2ccc3[nH]ncc3c2)[nH]c2c(-c3ccc(Cl)cc3)c(O)nn12 [Example 222, 3-(4-Chlorophenyl)-2-hydroxy-5-(1H-indazol-5-yl)pyrazolo[1,5-a]pyrimidin-7(4H)-one]
CCCNC(=O)c1c(N)nn2c(=O)cc(-c3ccc4c(c3)OCCO4)[nH]c12 [Example 226, 2-Amino-5-(2,3-dihydrobenzo[b][1,4]dioxin-6-yl)-7-oxo-N-propyl-4,7-dihydropyrazolo[1,5-a]pyrimidine-3-carboxamide]
CCCNC(=O)c1c(O)nn2c(=O)cc(-c3ccc4[nH]nnc4c3)[nH]c12 [Example 228, 5-(1H-Benzo[d][1,2,3]triazol-5-yl)-2-hydroxy-7-oxo-N-propyl-4,7-dihydropyrazolo[1,5-a]pyrimidine-3-carboxamide]
Cc1c(-c2cc(=O)n3ncc(-c4ccccn4)c3[nH]2)ccc2c1OCO2 [Example 229, 5-(4-Methylbenzo[d][1,3]dioxol-5-yl)-3-(pyridin-2-yl)pyrazolo[1,5-a]pyrimidin-7(4H)-one]
Cc1c(-c2cc(=O)n3nc(N)c(-c4ccccn4)c3[nH]2)ccc2c1OCO2 [Example 230, 2-Amino-5-(4-methylbenzo[d][1,3]dioxol-5-yl)-3-(pyridin-2-yl)pyrazolo[1,5-a]pyrimidin-7(4H)-one]
Cc1c(-c2cc(=O)n3nc(O)c(-c4ccccn4)c3[nH]2)ccc2c1OCO2 [Example 231, 2-Hydroxy-5-(4-methylbenzo[d][1,3]dioxol-5-yl)-3-(pyridin-2-yl)pyrazolo[1,5-a]pyrimidin-7(4H)-one]
Cc1nn2c(=O)cc(-c3ccc4c(c3C)OCO4)[nH]c2c1-c1ccccn1 [Example 232, 2-Methyl-5-(4-methylbenzo[d][1,3]dioxol-5-yl)-3-(pyridin-2-yl)pyrazolo[1,5-a]pyrimidin-7(4H)-one]
COc1c(-c2cc(=O)n3ncc(-c4ccccn4)c3[nH]2)ccc2c1OCO2 [Example 233, 5-(4-Methoxybenzo[d][1,3]dioxol-5-yl)-3-(pyridin-2-yl)pyrazolo[1,5-a]pyrimidin-7(4H)-one]
Cc1cc2[nH]nnc2cc1-c1cc(=O)n2ncc(-c3ccccn3)c2[nH]1 [Example 236, 5-(6-Methyl-1H-benzo[d][1,2,3]triazol-5-yl)-3-(pyridin-2-yl)pyrazolo[1,5-a]pyrimidin-7(4H)-one]
Cc1cc2[nH]nnc2cc1-c1cc(=O)n2nc(N)c(-c3ccccn3)c2[nH]1 [Example 238, 2-Amino-5-(6-methyl-1H-benzo[d][1,2,3]triazol-5-yl)-3-(pyridin-2-yl)pyrazolo[1,5-a]pyrimidin-7(4H)-one]
Cc1cc2[nH]nnc2cc1-c1cc(=O)n2nc(O)c(-c3ccccn3)c2[nH]1 [Example 239, 2-Hydroxy-5-(6-methyl-1H-benzo[d][1,2,3]triazol-5-yl)-3-(pyridin-2-yl)pyrazolo[1,5-a]pyrimidin-7(4H)-one]
Cc1c(-c2cc(=O)n3nc(N)c(-c4ccccn4)c3[nH]2)ccc2[nH]nnc12 [Example 240, 2-Amino-5-(4-methyl-1H-benzo[d][1,2,3]triazol-5-yl)-3-(pyridin-2-yl)pyrazolo[1,5-a]pyrimidin-7(4H)-one]
Cc1c(-c2cc(=O)n3nc(O)c(-c4ccccn4)c3[nH]2)ccc2[nH]nnc12 [Example 241, 2-Hydroxy-5-(4-methyl-1H-benzo[d][1,2,3]triazol-5-yl)-3-(pyridin-2-yl)pyrazolo[1,5-a]pyrimidin-7(4H)-one]
Cc1nn2c(=O)cc(-c3ccc4[nH]nnc4c3C)[nH]c2c1-c1ccccn1 [Example 242, 2-Methyl-5-(4-methyl-1H-benzo[d][1,2,3]triazol-5-yl)-3-(pyridin-2-yl)pyrazolo[1,5-a]pyrimidin-7(4H)-one]
COc1cc2[nH]nnc2cc1-c1cc(=O)n2nc(O)c(-c3ccccn3)c2[nH]1 [Example 244, 2-Hydroxy-5-(6-methoxy-1H-benzo[d][1,2,3]triazol-5-yl)-3-(pyridin-2-yl)pyrazolo[1,5-a]pyrimidin-7(4H)-one]
COc1c(-c2cc(=O)n3nc(N)c(-c4ccccn4)c3[nH]2)ccc2[nH]nnc12 [Example 246, 2-Amino-5-(4-methoxy-1H-benzo[d][1,2,3]triazol-5-yl)-3-(pyridin-2-yl)pyrazolo[1,5-a]pyrimidin-7(4H)-one]
COc1c(-c2cc(=O)n3nc(O)c(-c4ccccn4)c3[nH]2)ccc2[nH]nnc12 [Example 247, 2-Hydroxy-5-(4-methoxy-1H-benzo[d][1,2,3]triazol-5-yl)-3-(pyridin-2-yl)pyrazolo[1,5-a]pyrimidin-7(4H)-one]
